Source: ChEMBL document CHEMBL3734671, “Design and synthesis of an in vivo-efficacious PIM3 kinase inhibitor as a candidate anti-pancreatic cancer agent” (Bioorg Med Chem Lett, 2015)
Values after ≈ are worked out from the molar mass of the structure shown. Active and inactive are the calls of the source. The rule behind the calls is not given here.

Tests used:
[1] = target: Serine/threonine-protein kinase pim-3 (Homo sapiens, UniProt Q86V86); test: Inhibition of PIM3 (unknown origin) using FL-Peptide 1 (5-FAM-AKRRRLSSLRA-COOH) substrate incubated for 2 hrs by electrophoretic mobility shift assay
[2] = Growth inhibition of human PANC1 cells after 72 hrs by CCK-8 assay; type: functional, cell-based; settings: PANC-1, 72 h
[3] = Growth inhibition of human L3.6PL cells after 72 hrs by CCK-8 assay; type: functional
[4] = Growth inhibition of human PCI35 cells after 72 hrs by CCK-8 assay; type: functional, cell-based; settings: PCI35, 72 h
[5] = Aqueous solubility in PBS buffer solution at pH 7.4; type: physicochemical
[6] = Growth inhibition of human PCI66 cells after 72 hrs by CCK-8 assay; type: functional, cell-based; settings: PCI66, 72 h
[7] = target: Receptor-type tyrosine-protein kinase FLT3 (Homo sapiens) (UniProt P36888); test: Inhibition of FLT3 (unknown origin) at 200 nM by electrophoretic mobility shift assay
[8] = target: Serine/threonine-protein kinase pim-2 (Homo sapiens, UniProt Q9P1W9); test: Inhibition of PIM2 (unknown origin) by electrophoretic mobility shift assay
[9] = Growth inhibition of human MIAPaCa2 cells after 72 hrs by CCK-8 assay; type: functional, cell-based; settings: MIA PaCa-2, 72 h
[10] = target: CYP2C9 (Homo sapiens, UniProt P11712); test: Inhibition of CYP2C9 (unknown origin) at 10 uM; type: ADME
[11] = Growth inhibition of human MIAPaCa2 cells at 10 uM after 72 hrs by CCK-8 assay; type: functional; settings: MIA PaCa-2, 72 h, read-out: GI
[12] = Growth inhibition of human PCI66 cells at 10 uM after 72 hrs by CCK-8 assay; type: functional; settings: PCI66, 72 h, read-out: GI
[13] = target: CYP2D6 (Homo sapiens, UniProt P10635); test: Inhibition of CYP2D6 (unknown origin) at 10 uM; type: ADME
[14] = target: CYP3A4 (Homo sapiens, UniProt P08684); test: Inhibition of CYP3A4 (unknown origin) at 10 uM; type: ADME
[15] = target: T1, CYP1A2 (Homo sapiens, UniProt P05177); test: Inhibition of CYP1A2 (unknown origin) at 10 uM; type: ADME
T1 sequence (P05177 whole entry): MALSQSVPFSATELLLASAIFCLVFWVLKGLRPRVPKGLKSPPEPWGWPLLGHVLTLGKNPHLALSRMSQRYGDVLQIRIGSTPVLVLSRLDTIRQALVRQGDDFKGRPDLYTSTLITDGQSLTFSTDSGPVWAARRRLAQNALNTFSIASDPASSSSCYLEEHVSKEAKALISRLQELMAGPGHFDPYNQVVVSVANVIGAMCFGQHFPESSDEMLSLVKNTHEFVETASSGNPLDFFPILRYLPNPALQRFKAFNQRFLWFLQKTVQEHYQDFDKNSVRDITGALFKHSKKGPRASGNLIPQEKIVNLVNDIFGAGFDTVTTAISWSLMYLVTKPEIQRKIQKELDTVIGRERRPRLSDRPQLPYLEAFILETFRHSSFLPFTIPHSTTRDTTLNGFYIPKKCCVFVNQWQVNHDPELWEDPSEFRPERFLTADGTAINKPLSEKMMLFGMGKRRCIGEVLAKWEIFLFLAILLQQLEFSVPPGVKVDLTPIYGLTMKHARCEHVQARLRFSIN

[16] = target: CYP2C19 (Homo sapiens, UniProt P33261); test: Inhibition of CYP2C19 (unknown origin) at 10 uM; type: ADME
[17] = target: hERG (KCNH2) (Homo sapiens, UniProt Q12809); test: Inhibition of human ERG at 10 uM by patch-clamp method
Sequence of hERG (KCNH2) (Q12809 whole entry): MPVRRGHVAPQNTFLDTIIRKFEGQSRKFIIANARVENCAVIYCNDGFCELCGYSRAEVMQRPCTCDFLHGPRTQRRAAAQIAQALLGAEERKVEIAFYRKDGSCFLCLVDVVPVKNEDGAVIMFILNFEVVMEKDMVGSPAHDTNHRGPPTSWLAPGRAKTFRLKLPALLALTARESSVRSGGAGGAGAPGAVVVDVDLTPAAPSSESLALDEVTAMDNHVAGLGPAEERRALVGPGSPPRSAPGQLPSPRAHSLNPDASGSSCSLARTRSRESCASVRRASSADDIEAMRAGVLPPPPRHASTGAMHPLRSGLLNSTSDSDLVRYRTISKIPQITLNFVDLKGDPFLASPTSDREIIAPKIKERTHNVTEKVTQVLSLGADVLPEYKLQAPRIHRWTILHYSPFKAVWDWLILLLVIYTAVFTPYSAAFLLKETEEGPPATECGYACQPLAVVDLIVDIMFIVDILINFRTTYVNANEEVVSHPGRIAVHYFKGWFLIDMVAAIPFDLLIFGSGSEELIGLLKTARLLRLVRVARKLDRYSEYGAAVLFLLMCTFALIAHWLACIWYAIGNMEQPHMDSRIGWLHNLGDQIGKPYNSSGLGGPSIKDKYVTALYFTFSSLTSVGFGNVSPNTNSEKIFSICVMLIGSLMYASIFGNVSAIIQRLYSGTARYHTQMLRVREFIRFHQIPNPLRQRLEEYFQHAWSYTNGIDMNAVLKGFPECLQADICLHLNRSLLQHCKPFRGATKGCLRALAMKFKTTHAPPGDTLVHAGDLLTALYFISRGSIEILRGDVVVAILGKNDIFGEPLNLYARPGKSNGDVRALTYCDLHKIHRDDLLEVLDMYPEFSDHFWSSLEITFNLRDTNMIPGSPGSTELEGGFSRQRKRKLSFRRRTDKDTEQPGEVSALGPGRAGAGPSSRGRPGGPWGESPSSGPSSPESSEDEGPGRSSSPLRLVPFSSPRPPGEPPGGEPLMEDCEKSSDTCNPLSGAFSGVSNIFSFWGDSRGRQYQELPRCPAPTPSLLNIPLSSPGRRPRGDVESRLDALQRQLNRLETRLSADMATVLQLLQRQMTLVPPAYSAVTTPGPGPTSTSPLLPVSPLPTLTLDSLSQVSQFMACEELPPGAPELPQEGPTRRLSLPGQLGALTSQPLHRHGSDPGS

Sequence of CYP2C9 (P11712 whole entry): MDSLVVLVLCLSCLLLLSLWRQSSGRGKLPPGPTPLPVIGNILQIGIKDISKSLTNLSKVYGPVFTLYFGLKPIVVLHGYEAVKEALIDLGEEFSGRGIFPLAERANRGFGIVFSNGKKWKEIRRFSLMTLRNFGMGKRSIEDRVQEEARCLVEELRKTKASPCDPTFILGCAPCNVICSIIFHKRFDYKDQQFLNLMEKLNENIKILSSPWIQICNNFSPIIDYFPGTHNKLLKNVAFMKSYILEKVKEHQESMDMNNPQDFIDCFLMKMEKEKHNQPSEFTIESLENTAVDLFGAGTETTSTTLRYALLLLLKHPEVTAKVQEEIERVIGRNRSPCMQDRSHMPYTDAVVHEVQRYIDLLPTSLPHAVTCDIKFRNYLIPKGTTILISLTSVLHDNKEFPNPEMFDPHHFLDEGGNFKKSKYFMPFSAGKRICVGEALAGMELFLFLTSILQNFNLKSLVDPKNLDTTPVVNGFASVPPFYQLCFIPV
Sequence of Receptor-type tyrosine-protein kinase FLT3 (Homo sapiens) (P36888 whole entry): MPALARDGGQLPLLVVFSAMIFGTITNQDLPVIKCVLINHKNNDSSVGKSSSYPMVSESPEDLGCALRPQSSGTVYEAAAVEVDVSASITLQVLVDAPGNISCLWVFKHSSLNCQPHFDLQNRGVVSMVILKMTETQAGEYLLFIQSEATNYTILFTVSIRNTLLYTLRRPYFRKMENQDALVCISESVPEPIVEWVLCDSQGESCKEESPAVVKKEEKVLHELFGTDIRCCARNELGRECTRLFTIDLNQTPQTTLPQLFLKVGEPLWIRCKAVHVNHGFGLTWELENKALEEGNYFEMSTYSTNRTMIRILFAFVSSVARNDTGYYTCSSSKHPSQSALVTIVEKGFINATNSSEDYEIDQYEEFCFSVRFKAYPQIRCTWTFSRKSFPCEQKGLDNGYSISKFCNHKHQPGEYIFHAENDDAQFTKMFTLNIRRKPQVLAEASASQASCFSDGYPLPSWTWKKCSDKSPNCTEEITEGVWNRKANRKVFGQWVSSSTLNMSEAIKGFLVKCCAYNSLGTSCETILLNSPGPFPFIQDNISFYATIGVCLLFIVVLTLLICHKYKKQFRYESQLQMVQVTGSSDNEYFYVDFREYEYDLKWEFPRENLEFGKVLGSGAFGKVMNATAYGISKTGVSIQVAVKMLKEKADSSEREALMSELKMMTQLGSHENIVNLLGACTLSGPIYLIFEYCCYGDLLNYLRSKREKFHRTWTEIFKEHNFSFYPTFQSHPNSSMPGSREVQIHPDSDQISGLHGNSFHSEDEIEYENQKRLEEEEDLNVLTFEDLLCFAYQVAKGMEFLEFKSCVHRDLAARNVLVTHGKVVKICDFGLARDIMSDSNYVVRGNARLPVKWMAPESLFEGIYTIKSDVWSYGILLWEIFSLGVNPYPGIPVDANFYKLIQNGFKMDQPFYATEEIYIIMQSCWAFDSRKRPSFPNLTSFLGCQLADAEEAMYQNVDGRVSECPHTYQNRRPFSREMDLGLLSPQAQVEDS
Sequence of CYP2C19 (P33261 whole entry): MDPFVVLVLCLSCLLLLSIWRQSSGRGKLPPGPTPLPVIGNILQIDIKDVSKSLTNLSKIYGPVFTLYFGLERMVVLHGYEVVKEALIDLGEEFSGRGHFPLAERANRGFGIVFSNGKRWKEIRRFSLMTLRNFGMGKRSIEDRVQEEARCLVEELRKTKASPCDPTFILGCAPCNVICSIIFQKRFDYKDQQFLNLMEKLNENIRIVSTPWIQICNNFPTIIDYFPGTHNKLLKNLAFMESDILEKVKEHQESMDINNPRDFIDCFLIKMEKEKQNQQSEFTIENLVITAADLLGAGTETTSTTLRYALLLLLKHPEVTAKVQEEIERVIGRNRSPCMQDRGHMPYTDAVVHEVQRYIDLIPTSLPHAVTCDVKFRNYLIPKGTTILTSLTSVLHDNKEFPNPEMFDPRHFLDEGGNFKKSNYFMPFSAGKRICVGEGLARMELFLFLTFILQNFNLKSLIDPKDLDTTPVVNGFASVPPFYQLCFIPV
Sequence of CYP2D6 (P10635 whole entry): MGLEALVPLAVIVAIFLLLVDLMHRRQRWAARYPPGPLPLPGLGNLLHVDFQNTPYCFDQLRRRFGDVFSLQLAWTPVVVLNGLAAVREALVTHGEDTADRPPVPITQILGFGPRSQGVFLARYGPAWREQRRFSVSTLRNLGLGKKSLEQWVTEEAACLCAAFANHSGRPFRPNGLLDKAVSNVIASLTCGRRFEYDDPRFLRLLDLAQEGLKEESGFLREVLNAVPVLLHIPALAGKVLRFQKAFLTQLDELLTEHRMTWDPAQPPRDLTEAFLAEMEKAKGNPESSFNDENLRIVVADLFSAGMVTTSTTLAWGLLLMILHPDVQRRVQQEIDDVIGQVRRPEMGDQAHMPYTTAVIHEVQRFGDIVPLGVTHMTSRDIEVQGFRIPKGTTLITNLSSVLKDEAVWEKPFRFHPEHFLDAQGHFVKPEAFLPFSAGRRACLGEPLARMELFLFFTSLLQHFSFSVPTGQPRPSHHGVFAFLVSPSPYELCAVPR
Sequence of Serine/threonine-protein kinase pim-2 (Q9P1W9 whole entry): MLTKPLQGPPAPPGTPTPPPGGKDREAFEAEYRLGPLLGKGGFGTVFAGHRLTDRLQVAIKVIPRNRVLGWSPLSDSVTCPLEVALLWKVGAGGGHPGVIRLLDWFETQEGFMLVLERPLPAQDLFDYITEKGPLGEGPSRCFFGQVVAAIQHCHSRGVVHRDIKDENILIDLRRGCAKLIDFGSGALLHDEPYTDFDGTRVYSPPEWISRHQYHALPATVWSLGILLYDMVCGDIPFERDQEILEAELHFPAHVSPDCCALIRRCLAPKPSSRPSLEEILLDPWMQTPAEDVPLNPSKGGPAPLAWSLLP
Sequence of CYP3A4 (P08684 whole entry): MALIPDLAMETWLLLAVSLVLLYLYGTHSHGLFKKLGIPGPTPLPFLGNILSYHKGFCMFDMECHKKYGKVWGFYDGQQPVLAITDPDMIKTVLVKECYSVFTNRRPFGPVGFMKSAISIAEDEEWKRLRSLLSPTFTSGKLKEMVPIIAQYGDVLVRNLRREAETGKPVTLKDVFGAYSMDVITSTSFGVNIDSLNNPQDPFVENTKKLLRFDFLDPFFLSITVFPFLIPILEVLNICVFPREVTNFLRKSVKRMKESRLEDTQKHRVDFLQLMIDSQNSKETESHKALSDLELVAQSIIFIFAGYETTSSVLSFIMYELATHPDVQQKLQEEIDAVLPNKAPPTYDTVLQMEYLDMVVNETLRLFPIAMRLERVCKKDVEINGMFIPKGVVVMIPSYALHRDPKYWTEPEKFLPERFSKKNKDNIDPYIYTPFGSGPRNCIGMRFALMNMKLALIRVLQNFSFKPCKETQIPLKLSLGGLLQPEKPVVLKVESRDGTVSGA

| IC50 [1] [nM] | SMILES | IC50 [2] [µM] | further results |
| --- | --- | --- | --- |
| 6.4 | CC(c1c(OCCO)ccc2c1O/C(=C\c1n[nH]c3ncccc13)C2=O)N1CCNCC1 (centres undefined) | > 10 | – |
| 4 | COc1ccc2c(c1CN1CCN[C@H](C)C1)O/C(=C\c1n[nH]c3ncccc13)C2=O | 8.4 | – |
| 25 | COc1ccc2c(c1CN1CCNCC1)O/C(=C\c1n[nH]c3ccccc13)C2=O | > 10 | IC50 [3]: > 10 µM; IC50 [4]: > 10 µM; solubility [5]: 187 µM (≈ 73 µg/mL); IC50 [6]: > 10 µM; inhibition [7]: Active; IC50 [8]: > 1000 nM; IC50 [9]: > 10 µM; inhibition at 10 µM [10]: < 1% |
| 1.1 | COc1ccc2c(c1CN1CCNC[C@@H]1C)O/C(=C\c1n[nH]c3ncccc13)C2=O | > 10 | – |
| 44 | COc1ccc2c(c1CN1CCNCC1)O/C(=C\c1c[nH]c3cnccc13)C2=O | > 10 | – |
| 18 | COc1ccc2c(c1CN1CCNC[C@H]1C)O/C(=C\c1n[nH]c3ncccc13)C2=O | > 10 | – |
| – | C#Cc1cccc(Nc2ncnc3cc(OCCOC)c(OCCOC)cc23)c1 [ERLOTINIB] | 3.1 | IC50 [3]: 4 µM; IC50 [4]: 7.7 µM; IC50 [6]: > 10 µM; inhibition of growth at 10 µM [11]: < 1%; IC50 [9]: > 10 µM; inhibition of growth at 10 µM [12]: 12% |
| 0.8 | COc1ccc2c(c1CN1CCN[C@@H](C)C1)O/C(=C\c1n[nH]c3ncccc13)C2=O | 6.9 | – |
| 3 | COCCOc1ccc2c(c1C(C)N1CCNCC1)O/C(=C\c1n[nH]c3ncccc13)C2=O (centres undefined) | 3.3 | inhibition at 10 µM [13]: 83%; solubility [5]: 196 µM (≈ 88.1 µg/mL); inhibition at 10 µM [14]: < 1%; inhibition at 10 µM [15]: < 1%; inhibition at 10 µM [16]: < 1%; inhibition at 10 µM [17]: 16%; inhibition at 10 µM [10]: < 1% |
| 130 | COc1ccc2c(c1CN1CCNCC1)O/C(=C\c1c[nH]c3ccncc13)C2=O | > 10 | – |
| 1.3 | COc1ccc2c(c1CN1CCNCC1)O/C(=C\c1c[nH]c3ncccc13)C2=O | 5.2 | – |
| > 2000 | COc1ccc2c(c1CN1CCNCC1)O/C(=C\c1c[nH]c3cccnc13)C2=O | > 10 | – |
